Test results reported in patent US20250257048A1, “METHODS OF PREPARING AN ISOINDOLINONE DERIVATIVE AND CRYSTAL FORMS THEREOF” (Monte Rosa Therapeutics, Inc., priority 2022, published 2025).
Where “and” joins values, the source holds several entries; their conditions need not be identical. Equal entries are not always repeated. Where two headings read alike, the source gives them in different places. Values belong to the compound of their own block, whether it stands above or below them.

Experiments:
GSPT1 = GSPT1 (Homo sapiens (Human), UniProt P15170+Q96SW2); experiment: immunofluorescence assay for GSPT1 degradation in CAL-51 cells; assay type: cell-based; details: 6 hours treatment
Experimental: The representative compounds were tested in an immunofluorescence assay for their activity to bind to degrade GSPT1. CAL-51 cells were purchased from DSMZ (cat. Number ACC302), sub-cultured in 90% Dulbecco's MEM (4.5 g/L glucose, Gibco 11965)+10% heat inactivated FBS (BioConcept, 2-01F136I) and incubated at 37° C., 5% CO2. For the assay, imaging microtiterplate Cell Carrier 96 Ultra (Perkin Elmer 6055302) were pre-coated with Fibronectin (Sigma F085, 30 μl at 0.2 μg/ml) in PBS (100 μl, Gibco 14190) for 45 min at room temperature, rinsed with PBS and CAL-51 cells (30K cells/well) were plated and let to adhere overnight. Cells were treated with compounds typically using a serial dilution ranging from 30 μM to 0.1 nM for 6 hours. […]
Primary antibody (human GSPT1, Sigma HPA052488) was diluted in blocking buffer (dil.1/300, 35 μl/well) and incubated with the cells overnight at 4° C. […] Fluorescence intensity of Alexa-Fluor 488 (GSPT1), Alexa-Fluor 647 (Actin) and DAPI (Nucleus) were measured. […] The outline of the cells was determined analogously from the sum of the normalized, smoothed DAPI and Actin channel, starting from each nucleus.
The Alexa-Fluor 488 (GSPT1) signal intensity in each cell was finally measured, in order to obtain a Mean intensity per cell. GSPT1 degradation (DC50) was calculated after normalization to controls and data import in CDD vault Database, using non-linear regression. […]

[1] = biological target: Full length wild-type cereblon CRBN (Homo sapiens (Human), UniProt Q96SW2); experiment: fluorescence polarization (FP) homogeneous assay, cereblon binding; details: CRBN 80.0 nM, probe 5 nM, FP read after 12 hours, read-out: rFP IC50
Experimental: Compound activity was monitored in a fluorescence polarization (FP) homogeneous assay using 1-[5-({2-[2-(2-{[2-(2,6-dioxopiperidin-3-yl)-1,3-dioxo-2,3-dihydro-1H-isoindol-4-yl]oxy}acetamido) ethoxy]ethyl}carbamoyl) pentyl]-3,3-dimethyl-2-[(1E,3E)-5-[(2E)-1,3,3-trimethyl-5-sulfo-2,3-dihydro-1H-indol-2-ylidene]penta-1,3-dien-1-yl]-3H-indol-1-ium-5-sulfonate as a fluorescent probe. Unless otherwise stated, all reagents were purchased from Sigma Aldrich. Enzymatic reactions were conducted in Perkin-Elmer Black 384 well ProxiPlate Plus (catalogue no. 6008269) in 10 μL total volume. Full length wild-type cereblon CRBN (80.0 nM, 10 μL) was incubated in assay buffer containing 20 mM HEPES (pH 8.0), […], 0.5 mM TCEP and 0.05% Tween 20 in the presence or absence of compound (300 nL). Inhibitors were stored as 10 mM DMSO stocks in an inert environment (low humidity, dark, low oxygen, room temperature) using the Storage Pod System. Compounds and DMSO were dispensed using the Echo E5XX (Labcyte Inc. USA) to give concentrations from 300 to 0.937 or 3000 to 9.3 nM in a 12 data point curve. […] FP was measured after a period of 12 hours using a Pherastar plate reader (BMG Labtech, Germany) exciting at 590 nm and measuring the amount of parallel and perpendicular light at 675 nm. […]

[2] = solubility of crystalline Form I in media (water) at 37° C.; assay type: physicochemical
Experimental: Solubility of crystalline Form I was evaluated by weighing about 10 mg of crystalline Form I into 2 mL of media, and then stirring the suspension at 37° C. for 24 hours. At 1, 4 and 24 hours, the suspensions were filtered, and the filtrates were analyzed by HPLC and pH.

[3] = solid stability at 40° C./75% RH and 25° C./60% RH for 7 days (HPLC purity, XRPD); assay type: physicochemical; details: for physical and chemical stability: 25° C. 60% RH and 40° C. 75% RH for 7 days
Experimental: Solid stability was evaluated at 40° C./75RH and 25° C./60% RH for 7 days.

[4] = hygroscopicity of crystalline form; assay type: physicochemical

Full length wild-type cereblon CRBN, sequence (Q96SW2 whole entry): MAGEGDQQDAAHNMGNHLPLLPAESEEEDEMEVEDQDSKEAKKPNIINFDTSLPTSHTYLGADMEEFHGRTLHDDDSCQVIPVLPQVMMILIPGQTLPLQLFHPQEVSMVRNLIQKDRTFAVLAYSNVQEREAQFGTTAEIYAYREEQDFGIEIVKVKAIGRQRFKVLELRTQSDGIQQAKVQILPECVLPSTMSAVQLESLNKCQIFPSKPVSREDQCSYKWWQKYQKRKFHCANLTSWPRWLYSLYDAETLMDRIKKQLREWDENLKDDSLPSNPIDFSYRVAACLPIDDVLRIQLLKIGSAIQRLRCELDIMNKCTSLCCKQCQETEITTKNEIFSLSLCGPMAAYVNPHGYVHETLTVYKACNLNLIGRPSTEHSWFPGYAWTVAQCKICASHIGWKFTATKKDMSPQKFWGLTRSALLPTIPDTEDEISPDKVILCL
GSPT1, sequence (P15170 whole entry): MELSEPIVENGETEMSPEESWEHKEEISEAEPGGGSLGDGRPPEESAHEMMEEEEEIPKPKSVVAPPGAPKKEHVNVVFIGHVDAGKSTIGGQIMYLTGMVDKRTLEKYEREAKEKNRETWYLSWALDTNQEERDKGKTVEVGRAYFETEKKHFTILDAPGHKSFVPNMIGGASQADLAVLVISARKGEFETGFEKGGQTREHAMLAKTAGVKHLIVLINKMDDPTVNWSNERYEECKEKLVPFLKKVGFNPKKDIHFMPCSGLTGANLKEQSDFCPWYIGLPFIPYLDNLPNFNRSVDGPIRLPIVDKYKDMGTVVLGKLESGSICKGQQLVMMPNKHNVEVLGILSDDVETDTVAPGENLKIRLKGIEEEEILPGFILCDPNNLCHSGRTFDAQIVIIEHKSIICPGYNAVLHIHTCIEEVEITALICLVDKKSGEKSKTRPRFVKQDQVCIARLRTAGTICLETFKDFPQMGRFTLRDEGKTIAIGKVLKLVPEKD
GSPT1, sequence (Q96SW2 whole entry): as the sequence (Q96SW2 whole entry) above
GSPT1, sequence (Q16531 whole entry partner): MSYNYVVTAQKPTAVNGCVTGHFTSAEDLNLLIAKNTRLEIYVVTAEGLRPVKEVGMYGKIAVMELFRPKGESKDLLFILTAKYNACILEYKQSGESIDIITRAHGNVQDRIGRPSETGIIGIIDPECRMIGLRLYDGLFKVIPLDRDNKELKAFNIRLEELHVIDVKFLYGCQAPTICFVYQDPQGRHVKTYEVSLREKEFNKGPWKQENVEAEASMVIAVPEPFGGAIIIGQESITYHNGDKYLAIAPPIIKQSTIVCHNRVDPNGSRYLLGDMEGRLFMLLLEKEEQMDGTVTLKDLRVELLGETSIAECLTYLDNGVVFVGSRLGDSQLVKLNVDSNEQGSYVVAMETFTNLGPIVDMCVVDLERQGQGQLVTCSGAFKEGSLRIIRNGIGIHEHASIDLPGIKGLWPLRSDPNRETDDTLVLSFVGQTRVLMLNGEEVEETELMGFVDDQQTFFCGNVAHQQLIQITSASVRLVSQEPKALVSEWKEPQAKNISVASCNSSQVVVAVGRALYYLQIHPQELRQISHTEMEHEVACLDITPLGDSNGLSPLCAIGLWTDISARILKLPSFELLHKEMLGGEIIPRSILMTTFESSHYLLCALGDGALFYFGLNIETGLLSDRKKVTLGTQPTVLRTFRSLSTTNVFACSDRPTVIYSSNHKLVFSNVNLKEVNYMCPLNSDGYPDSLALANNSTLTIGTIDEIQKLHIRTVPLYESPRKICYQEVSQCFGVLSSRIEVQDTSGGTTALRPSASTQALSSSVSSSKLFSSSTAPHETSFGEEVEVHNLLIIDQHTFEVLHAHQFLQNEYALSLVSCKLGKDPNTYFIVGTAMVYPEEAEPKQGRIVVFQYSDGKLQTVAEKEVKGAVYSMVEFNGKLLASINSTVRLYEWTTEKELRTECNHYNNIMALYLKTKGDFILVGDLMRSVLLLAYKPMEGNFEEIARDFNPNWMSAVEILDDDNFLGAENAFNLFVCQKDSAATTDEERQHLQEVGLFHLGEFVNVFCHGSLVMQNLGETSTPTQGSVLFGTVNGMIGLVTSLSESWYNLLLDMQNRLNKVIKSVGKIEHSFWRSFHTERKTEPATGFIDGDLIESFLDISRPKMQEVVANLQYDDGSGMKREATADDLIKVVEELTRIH

DC50 (GSPT1): 30 to 300 nM | IC50 [1]: 500 to 1100 nM
Structure (SMILES): O=C1CCC(N2Cc3ccc(COC(=O)Nc4cc(OC(F)(F)F)ccc4F)cc3C2=O)C(=O)N1 (centres unmarked) [Compound 145, (2-(2,6-dioxopiperidin-3-yl)-3-oxoisoindolin-5-yl)methyl (2-fluoro-5-(trifluoromethoxy)phenyl)carbamate]

crystal form of remained solid in all media ([2]; 37° C., after 1, 4 and 24 hours, XRPD (FIG. 5)): unchanged | solubility ([2]; aqueous solution, 37 °C, aqueous buffer, thermodynamic from solid, about pH 6 to 7, read-out: solubility in an aqueous solution): < 1 µg/mL | pH(24 h) ([2]; pH of filtrate, H2O, 37° C., 24 h): 6.35 and 6.61 and 6.41 | XRPD(24 h) ([2]; remained solid, H2O, 37° C., 24 h): Form I | solubility at 1 h ([2]; water, 37 °C, thermodynamic from solid, H2O, 1 h, triplicate H2O-1 to H2O-3): < 1 µg/mL | solubility at 4 h ([2]; water, 37 °C, thermodynamic from solid, H2O, 4 h, triplicate H2O-1 to H2O-3): < 1 µg/mL | solubility at 24 h ([2]; water, 37 °C, thermodynamic from solid, H2O, 24 h, triplicate H2O-1 to H2O-3): < 1 µg/mL | solubility ([2]; water, 37 °C, water, thermodynamic from solid, read-out: solubility in water): < 1 µg/mL | physical and chemical stability [3]: good physical and chemical stability | physical and chemical stability ([3]; listed as Crystalline Form I): physically and chemically stable | physical and chemical stability ([3]; listed as crystalline Form I): no obvious degradation nor form change | Purity ([3]; 25° C./60% RH, 1 day): 100% | XRPD ([3]; 25° C./60% RH, 1 day): Form I | Purity ([3]; 25° C./60% RH, 7 day): 100% | XRPD ([3]; 25° C./60% RH, 7 day): Form I | Purity ([3]; 40° C./75% RH, 1 day): 100% | XRPD ([3]; 40° C./75% RH, 1 day): Form I | Purity ([3]; 40° C./75% RH, 7 day): 99.95% | XRPD ([3]; 40° C./75% RH, 7 day): Form I | Purity-T0 ([3]; T0 (day 0), HPLC): 100% | hygroscopicity [4]: nonhydroscopic
Structure (SMILES): O=C1CCC(N2Cc3ccc(COC(=O)Nc4cc(OC(F)(F)F)ccc4F)cc3C2=O)C(=O)N1 (centres unmarked) [Form I, (2-(2,6-dioxopiperidin-3-yl)-3-oxoisoindolin-5-yl)methyl (2-fluoro-5-(trifluoromethoxy)phenyl)carbamate]
